Data from ChEMBL document CHEMBL5131385, “Novel piperazine based benzamide derivatives as potential anti-glioblastoma agents inhibiting cell proliferation and cell cycle progression” (Eur J Med Chem, 2022).
pIC50: −log10 of the molar value. Activity calls are given as the source filed them. The rule behind the calls is not given here.

Tests used:
[1] = Antiproliferative activity against human U-87 MG cells assessed as inhibition of cell proliferation measured after 72 hrs by CCK8 assay; format: functional, cell-based, U-87MG ATCC
C6 = assay: Antiproliferative activity against rat C6 cells assessed as inhibition of cell proliferation measured after 72 hrs by CCK8 assay; format: functional, cell-based; conditions: C6, 72 h
U-87MG ATCC [2] = assay: Antiproliferative activity against human U-87 MG cells assessed as inhibition of cell proliferation and measured upto 72 hrs by CCK8 assay; format: functional, cell-based; conditions: TDE = time-dependent effect
U-87MG ATCC [3] = assay: Antiproliferative activity against human U-87 MG cells assessed as reduction in colony number at 0.125 to 0.5 uM for 2 to 3 weeks by crystal violet staining based plate clone formation assay; format: functional, cell-based; conditions: dose 0.125-0.5 µM, time 2-3 weeks, DDE = dose-dependent effect
U-87MG ATCC [4] = assay: Antiproliferative activity against human U-87 MG cells assessed as reduction in cell proliferation at 0.125 to 0.5 uM and measured after 24 hrs by EdU incorporation based assay; format: functional; conditions: dose 0.125-0.5 µM, DDE = dose-dependent effect
U-251 [5] = assay: Antiproliferative activity against human U-251 cells assessed as reduction in cell proliferation at 0.075 to 1.2 uM and measured after 24 hrs by EdU incorporation based assay; format: functional; conditions: dose 0.075-1.2 µM, DDE = dose-dependent effect
U-87MG ATCC [6] = assay: Induction of apoptosis in human U-87 MG cells assessed as reduction in cell count at 0.075 to 1.20 uM measured after 72 hrs by Giemsa staining based microscopic analysis; format: functional; conditions: dose 0.075-1.2 µM
U-251 [7] = assay: Induction of apoptosis in human U-251 cells assessed as reduction in cell count at 0.375 to 6 uM measured after 72 hrs by Giemsa staining based microscopic analysis; format: functional; conditions: dose 0.375-6 µM
U-87MG ATCC [8] = assay: Induction of apoptosis in human U-87 MG cells assessed as enlargement of intracellular space at 0.075 to 1.20 uM measured after 72 hrs by Giemsa staining based microscopic analysis; format: functional, cell-based; conditions: dose 0.075-1.2 µM
U-251 [9] = assay: Induction of apoptosis in human U-251 cells assessed as decrease in cell size at 0.375 to 6 uM measured after 72 hrs by Giemsa staining based microscopic analysis; format: functional; conditions: dose 0.375-6 µM
U-87MG ATCC [10] = assay: Induction of apoptosis in human U-87 MG cells assessed as formation of spindle shaped cells at 0.075 to 1.20 uM measured after 72 hrs by Giemsa staining based microscopic analysis; format: functional, cell-based; conditions: dose 0.075-1.2 µM
[11] = Induction of apoptosis in human U-87 MG cells assessed as viable cells at 1.20 uM incubated for 72 hrs by Annexin V-FITC/PI staining based flow cytometry method (reference value: 96.84 %); format: functional, U-87MG ATCC; conditions: read-out: Activity
[12] = Induction of apoptosis in human U-87 MG cells assessed as early apoptotic cells at 0.075 uM incubated for 72 hrs by Annexin V-FITC/PI staining based flow cytometry method (reference value: 2.53 %); format: functional, U-87MG ATCC
[13] = Induction of apoptosis in human U-87 MG cells assessed as necrotic cells at 0.075 uM incubated for 72 hrs by Annexin V-FITC/PI staining based flow cytometry method (reference value: 0.21 %); format: functional, U-87MG ATCC
[14] = Induction of apoptosis in human U-87 MG cells assessed as viable cells at 0.30 uM incubated for 72 hrs by Annexin V-FITC/PI staining based flow cytometry method (reference value: 96.84 %); format: functional, U-87MG ATCC; conditions: read-out: Activity
[15] = Induction of apoptosis in human U-87 MG cells assessed as necrotic cells at 0.30 uM incubated for 72 hrs by Annexin V-FITC/PI staining based flow cytometry method (reference value: 0.21 %); format: functional, U-87MG ATCC; conditions: dose 0.3 µM
U-251 [16] = assay: Induction of apoptosis in human U-251 cells assessed as viable cells at 0.375 uM incubated for 72 hrs by Annexin V-FITC/PI staining based flow cytometry method (reference value: 96.22 %); format: functional; conditions: read-out: Activity
U-251 [17] = assay: Induction of apoptosis in human U-251 cells assessed as early apoptotic cells at 0.375 uM incubated for 72 hrs by Annexin V-FITC/PI staining based flow cytometry method (Rvb =1.96 %); format: functional
U-251 [18] = assay: Induction of apoptosis in human U-251 cells assessed as necrotic cells at 0.375 uM incubated for 72 hrs by Annexin V-FITC/PI staining based flow cytometry method (Rvb =0.51 %); format: functional
U-251 [19] = assay: Induction of apoptosis in human U-251 cells assessed as viable cells at 1.50 uM incubated for 72 hrs by Annexin V-FITC/PI staining based flow cytometry method (reference value: 96.22 %); format: functional; conditions: read-out: Activity
U-251 [20] = assay: Induction of apoptosis in human U-251 cells assessed as necrotic cells at 1.50 uM incubated for 72 hrs by Annexin V-FITC/PI staining based flow cytometry method (Rvb =0.51 %); format: functional; conditions: dose 1.5 µM
U-251 [21] = assay: Induction of cell cycle arrest in human U-251 cells assessed as decrease in accumulation at S phase at 0.75 to 3 uM measured after 72 hrs by flow cytometry; format: functional, cell-based; conditions: dose 0.75-3 µM, DDE = dose-dependent effect
U-87MG ATCC [22] = assay: Induction of cell cycle arrest in human U-87 MG cells assessed as decrease in accumulation at S phase at 0.075 to 1.20 uM measured after 72 hrs by flow cytometry; format: functional, cell-based; conditions: dose 0.075-1.2 µM, DDE = dose-dependent effect
U-87MG ATCC [23] = assay: Antimigratory activity in human U-87 MG cells assessed as inhibition of cell migration by measuring wound closure at 0.125 to 0.50 uM and measured after 24 hrs by wound healing assay; format: functional, cell-based; conditions: dose 0.125-0.5 µM, DDE = dose-dependent effect
U-87MG ATCC [24] = assay: Antimigratory activity in human U-87 MG cells assessed as inhibition of cell migration by measuring wound closure at 0.125 to 0.50 uM and measured after 24 hrs by transwell migration assay; format: functional, cell-based; conditions: dose 0.125-0.5 µM, DDE = dose-dependent effect
[25] = Acute toxicity in Kunming mouse assessed as survival at 600 mg/kg, ip measured after 14 days; format: organism-based; conditions: in vivo, 336 h, time 14 day
[26] = Acute toxicity in Kunming mouse assessed as pathological changes in liver at 600 mg/kg, ip measured after 24 hrs by H and E staining analysis; format: organism-based; conditions: in vivo
[27] = Acute toxicity in Kunming mouse assessed as pathological changes in spleen at 600 mg/kg, ip measured after 24 hrs by H and E staining analysis; format: organism-based; conditions: in vivo
U-87MG ATCC [28] = assay: Antitumor activity against human U-87 MG cells xenografted in BALB/c mouse assessed as decrease in tumor volume at 10 mg/kg,ip bid for 1 month; format: functional, organism-based; conditions: time 1.0 months
U-251 [29] = assay: Downregulation of cyclin D1 gene expression in human U-251 cells at 0.075 to 1.2 uM measured after 72 hrs by western blot analysis; format: functional, cell-based; conditions: dose 0.075-1.2 µM
U-251 [30] = assay: Downregulation of CDK4 gene expression in human U-251 cells at 0.075 to 1.2 uM measured after 72 hrs by western blot analysis; format: functional, cell-based; conditions: dose 0.075-1.2 µM
U-251 [31] = assay: Downregulation of CDK6 gene expression in human U-251 cells at 0.075 to 1.2 uM measured after 72 hrs by western blot analysis; format: functional, cell-based; conditions: dose 0.075-1.2 µM
[32] = Permeability of compound across blood brain barrier in Sprague-Dawley rat at 100 mg/kg, ip and measured after 240 mins by LC-MS analysis; format: ADME, organism-based; conditions: read-out: BBR
U-251 [33] = assay: Upregulation of p16 INK4a gene expression in human U-251 cells at 0.075 to 1.2 uM measured after 72 hrs by western blot analysis; format: functional, cell-based; conditions: dose 0.075-1.2 µM

With `COCCN1CCN(c2ccc(F)cc2C(=O)Nc2ccc(CNC(=O)OCc3cccnc3)cc2)CC1` the pIC50 [1] was 6.54, the pIC50 (C6) was 6.82 and the Activity (U-87MG ATCC [2]) was “Tde”. The Activity (U-87MG ATCC [3]) was “Dde”, the Activity (U-87MG ATCC [4]) was “Dde” and the Activity (U-251 [5]) was “Dde”. For the same molecule, the Activity (U-87MG ATCC [6]) was “Active”, the Activity (U-251 [7]) was “Active” and the Activity (U-87MG ATCC [8]) was “Active”. For the same molecule, the Activity (U-251 [9]) was “Active”, the Activity (U-87MG ATCC [10]) was “Active” and the viability at 1.2 µM [11] was 70.3%. It also gave an Activity [12] of 2.76%, an Activity [13] of 0.33% and a viability at 0.3 µM [14] of 94.2%. For the same molecule, the Activity [15] was 0.34%, the viability at 0.375 µM (U-251 [16]) was 95.9% and the Activity (U-251 [17]) was 1.9%. For the same molecule, the Activity (U-251 [18]) was 0.53%, the viability at 1.5 µM (U-251 [19]) was 93.7% and the Activity (U-251 [20]) was 0.94%. For the same molecule, the Activity (U-251 [21]) was “Dde”, the Activity (U-87MG ATCC [22]) was “Dde” and the Activity (U-87MG ATCC [23]) was “Dde”. The Activity (U-87MG ATCC [24]) was “Dde”, the Activity [25] was “Non-Toxic” and the Activity [26] was “Non-Toxic”. The Activity [27] was “Non-Toxic”, the Activity (U-87MG ATCC [28]) was “Active” and the Activity (U-251 [29]) was “Active”. The Activity (U-251 [30]) was “Active”, the Activity (U-251 [31]) was “Active” and the Kp at 4 h [32] was 1.07. The Activity (U-251 [33]) was “Active”.
